Results: ChEMBL document CHEMBL1909294, “Translating clinical findings into knowledge in drug safety evaluation--drug induced liver injury prediction system (DILIps)” (PLoS Comput Biol, 2011)

What was measured:
[1] = test system: Hepatotoxicity;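 on HepSE bilirubinemia: bilirubinemia hepatic side effect score drawn from the DILIps training data, a prediction system for drug-induced liver injury; call rule not given here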;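 on HepSE cholecystitis: Cholecystitis-related hepatic side effect score drawn from the DILIps (drug-induced liver injury prediction) training data set; call rule not given here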;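 on HepSE cholelithiasis: hepatic side effect score for cholelithiasis, drawn from the DILIps training data for predicting drug-induced liver injury; call rule not given here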;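 on HepSE cirrhosis: cirrhosis hepatic side effect score taken from the DILIps (drug-induced liver injury prediction) training set; call rule not given here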;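 on HepSE elevated liver function tests: hepatic side effect score for raised liver function tests, as recorded in the DILIps training set used for predicting drug-induced liver injury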; on HepSE hepatic failure: call rule not given here;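 on HepSE hepatomegaly: hepatic side effect score for hepatomegaly, taken from the training set of the DILIps drug-induced liver injury prediction system; call rule not given here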
[2] = test system: Hepatotoxicity; remark: listed apart in the source;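 on HepSE bilirubinemia: bilirubinemia hepatic side effect score drawn from the DILIps training data, a prediction system for drug-induced liver injury; call rule not given here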;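 on HepSE cholecystitis: Cholecystitis-related hepatic side effect score drawn from the DILIps (drug-induced liver injury prediction) training data set; call rule not given here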;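 on HepSE cholelithiasis: hepatic side effect score for cholelithiasis, drawn from the DILIps training data for predicting drug-induced liver injury; call rule not given here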;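 on HepSE cirrhosis: cirrhosis hepatic side effect score taken from the DILIps (drug-induced liver injury prediction) training set; call rule not given here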;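 on HepSE elevated liver function tests: hepatic side effect score for raised liver function tests, as recorded in the DILIps training set used for predicting drug-induced liver injury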; on HepSE hepatic failure: call rule not given here;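 on HepSE hepatomegaly: hepatic side effect score for hepatomegaly, taken from the training set of the DILIps drug-induced liver injury prediction system; call rule not given here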
[3] = test system: Hepatotoxicity; remark: listed apart in the source;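 on HepSE bilirubinemia: bilirubinemia hepatic side effect score drawn from the DILIps training data, a prediction system for drug-induced liver injury; call rule not given here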;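 on HepSE cholecystitis: Cholecystitis-related hepatic side effect score drawn from the DILIps (drug-induced liver injury prediction) training data set; call rule not given here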;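 on HepSE cholelithiasis: hepatic side effect score for cholelithiasis, drawn from the DILIps training data for predicting drug-induced liver injury; call rule not given here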;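 on HepSE cirrhosis: cirrhosis hepatic side effect score taken from the DILIps (drug-induced liver injury prediction) training set; call rule not given here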;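 on HepSE elevated liver function tests: hepatic side effect score for raised liver function tests, as recorded in the DILIps training set used for predicting drug-induced liver injury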; on HepSE hepatic failure: call rule not given here
[4] = test system: Hepatotoxicity; remark: listed apart in the source;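 on HepSE bilirubinemia: bilirubinemia hepatic side effect score drawn from the DILIps training data, a prediction system for drug-induced liver injury; call rule not given here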;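 on HepSE cholecystitis: Cholecystitis-related hepatic side effect score drawn from the DILIps (drug-induced liver injury prediction) training data set; call rule not given here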;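 on HepSE cholelithiasis: hepatic side effect score for cholelithiasis, drawn from the DILIps training data for predicting drug-induced liver injury; call rule not given here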;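 on HepSE cirrhosis: cirrhosis hepatic side effect score taken from the DILIps (drug-induced liver injury prediction) training set; call rule not given here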;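 on HepSE elevated liver function tests: hepatic side effect score for raised liver function tests, as recorded in the DILIps training set used for predicting drug-induced liver injury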; on HepSE hepatic failure: call rule not given here
[5] = test system: Hepatotoxicity; remark: listed apart in the source; on HepSE hepatic failure: call rule not given here
[6] = test system: Hepatotoxicity; remark: listed apart in the source; on HepSE hepatic failure: call rule not given here
[7] = test system: Hepatotoxicity; remark: listed apart in the source
[8] = test system: Hepatotoxicity; remark: listed apart in the source
[9] = test system: Hepatotoxicity; remark: listed apart in the source
[10] = test system: Hepatotoxicity; remark: listed apart in the source
[11] = test system: Hepatotoxicity; remark: listed apart in the source
[12] = test system: Hepatotoxicity; remark: listed apart in the source
[13] = test system: Hepatotoxicity; remark: listed apart in the source
[14] = test system: Hepatotoxicity; remark: listed apart in the source

SMILES | HepSE_bilirubinemia [1] | HepSE_cholecystitis [2] | HepSE_cholelithiasis [3] | HepSE_cirrhosis [4] | HepSE_elevated liver function tests [5] | HepSE_hepatic failure [6] | HepSE_hepatic necrosis [7] | HepSE_hepatitis [8] | HepSE_hepatomegaly [9] | HepSE_jaundice [10] | HepSE_liver disease [11] | HepSE_liver fatty [12] | HepSE_liver function tests abnormal [13] | HepSE_Combined Scores [14] | other results
CC(=O)NCCCS(=O)(=O)O [ACAMPROSATE] | 1 | 1 | 0 | 1 | 0 | 0 | 0 | 1 | 0 | 0 | 0 | 0 | 1 | 5 | 
Cc1cccc(Nc2ccccc2C(=O)O)c1C [MEFENAMIC ACID] |  |  |  |  |  |  |  |  |  |  |  |  |  |  | HepSE_bilirubinemia ([1]; Liver): 0; HepSE_cholecystitis ([2]; Liver): 0; HepSE_cholelithiasis ([3]; Liver): 0; HepSE_cirrhosis ([4]; Liver): 0; HepSE_elevated liver function tests ([5]; Liver): 0; HepSE_hepatic failure ([6]; Liver): 1; HepSE_hepatic necrosis ([7]; Liver): 0; HepSE_hepatitis ([8]; Liver): 1; HepSE_hepatomegaly ([9]; Liver): 0; HepSE_jaundice ([10]; Liver): 1; HepSE_liver disease ([11]; Liver): 0; HepSE_liver fatty ([12]; Liver): 0; HepSE_liver function tests abnormal ([13]; Liver): 0; HepSE_Combined Scores ([14]; Liver): 3
Cc1ccnc2c1NC(=O)c1cccnc1N2C1CC1 [NEVIRAPINE] | 0 | 0 | 0 | 0 | 0 | 1 | 1 | 1 | 0 | 1 | 1 | 0 | 1 | 6 | 
CCC1(c2ccccc2)NC(=O)N(C)C1=O (stereo unspecified) [MEPHENYTOIN] | 0 | 0 | 0 | 0 | 0 | 0 | 0 | 1 | 0 | 1 | 0 | 0 | 0 | 2 | 
COc1ccc(CC2c3cc(OC)c(OC)cc3CC[N+]2(C)CCC(=O)OCCCCCOC(=O)CC[N+]2(C)CCc3cc(OC)c(OC)cc3C2Cc2ccc(OC)c(OC)c2)cc1OC (stereo unspecified) | 0 | 0 | 0 | 0 | 0 | 0 | 0 | 0 | 0 | 0 | 0 | 0 | 0 | 0 | 
CC(COc1ccccc1)N(CCCl)Cc1ccccc1 (stereo unspecified) [PHENOXYBENZAMINE] | 0 | 0 | 0 | 0 | 0 | 0 | 0 | 0 | 0 | 0 | 0 | 0 | 0 | 0 | 
CC1(C)S[C@@H]2[C@H](NC(=O)C(C(=O)O)c3ccccc3)C(=O)N2[C@H]1C(=O)O (stereo partly specified) [CARBENICILLIN] | 0 | 0 | 0 | 0 | 0 | 0 | 0 | 0 | 0 | 0 | 0 | 0 | 0 | 0 | 
Nc1c2c(nc3ccccc13)CCCC2 [TACRINE] |  |  |  |  |  |  |  |  |  |  |  |  |  |  | HepSE_bilirubinemia ([1]; Liver): 0; HepSE_cholecystitis ([2]; Liver): 1; HepSE_cholelithiasis ([3]; Liver): 1; HepSE_cirrhosis ([4]; Liver): 0; HepSE_elevated liver function tests ([5]; Liver): 0; HepSE_hepatic failure ([6]; Liver): 0; HepSE_hepatic necrosis ([7]; Liver): 0; HepSE_hepatitis ([8]; Liver): 0; HepSE_hepatomegaly ([9]; Liver): 0; HepSE_jaundice ([10]; Liver): 0; HepSE_liver disease ([11]; Liver): 0; HepSE_liver fatty ([12]; Liver): 0; HepSE_liver function tests abnormal ([13]; Liver): 0; HepSE_Combined Scores ([14]; Liver): 2
Nc1cc(Cl)c(N=C2NCCN2)c(Cl)c1 [APRACLONIDINE] | 0 | 0 | 0 | 0 | 0 | 0 | 0 | 0 | 0 | 0 | 0 | 0 | 0 | 0 | 
